Here are results for 9 compounds from patent publication US20230218644A1, “COMPOUNDS FOR USE IN THE TREATMENT OF VIRAL INFECTIONS BY RESPIRATORY SYNDROME-RELATED CORONAVIRUS” (SOM INNOVATION BIOTECH, S.A., priority 2020, published 2023).

For one series, the target named is SARS-CoV-2 3CLpro (Severe acute respiratory syndrome coronavirus 2, UniProt P0DTD1). The experiment in a line: biochemical. Type of series: biochemical. To be noted: for inhibition activity against SARS-CoV-2 3CLpro in vitro (in words): FRET assay, 30 tested compounds.
The next series has as its system SARS-CoV-2. The experiment in a line: microbe, parasite or virus in culture. To be noted: Severe acute respiratory syndrome coronavirus 2, Vero C1008, read-out: IC50 of inhibition of cell infection. It counts as cell-based.
A further series deals with MERS-CoV 3CLpro (Middle East respiratory syndrome-related coronavirus, UniProt K9N7C7). The experiment in a line: biochemical.
MERS-CoV 3CLpro, sequence (K9N7C7 3248-3553 limits assumed): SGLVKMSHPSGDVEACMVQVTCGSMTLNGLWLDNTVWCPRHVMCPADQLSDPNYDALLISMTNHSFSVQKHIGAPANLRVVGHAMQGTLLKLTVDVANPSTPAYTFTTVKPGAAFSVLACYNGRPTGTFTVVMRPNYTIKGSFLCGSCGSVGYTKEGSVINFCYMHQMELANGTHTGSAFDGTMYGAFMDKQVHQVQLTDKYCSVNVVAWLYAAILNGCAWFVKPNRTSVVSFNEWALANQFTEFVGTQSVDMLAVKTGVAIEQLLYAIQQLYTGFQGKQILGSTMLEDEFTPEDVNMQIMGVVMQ
A further series concerns the target SARS-CoV-2 protease (Severe acute respiratory syndrome coronavirus 2, UniProt P0DTD1). To be noted: Fu et al., Nature Comm. 2020; cited from earlier work.
A further series deals with SARS-CoV-2 virus. To be noted: Vero E6 cells; Choy K. et al, Antivir. Res. 2020; read-out: IC50 antiviral effect; cited from earlier work.

`CCOC(=O)/C=C/[C@H](C[C@@H]1CCNC1=O)NC(=O)[C@@H](CC(=O)[C@@H](NC(=O)c1cc(C)on1)C(C)C)Cc1ccc(F)cc1`: the “inhibition activity against SARS-CoV-2 3CLpro in vitro (in words)” value (“inhibition activity” below) against SARS-CoV-2 3CLpro is reported as “not active in vitro”.

As to `CCN(CC)CCCC(C)Nc1ccnc2cc(Cl)ccc12` (racemic) [chloroquine, (RS)-N′-(7-chloroquinolin-4-yl)-N,N-diethyl-pentane-1,4-diamine], the “cytotoxicity / cell viability (in words)” value in the series with VeroE6 cells was “significant cytotoxicity”. The IC50 (as a rule, the concentration that gives 50% inhibition) in the series with SARS-CoV-2 is approximately 12 µM.

On to `O=C(/C=C/c1ccc(O)c(O)c1)OC1CC(OC(=O)/C=C/c2ccc(O)c(O)c2)(C(=O)O)CC(O)C1O` (stereo not drawn) [CYNARIN, 1,3-bis[[(E)-3-(3,4-dihydroxyphenyl)prop-2-enoyl]oxy]-4,5-dihydroxycyclohexane-1-carboxylic acid], for which inhibition against MERS-CoV 3CLpro was half-maximal at 16.7 µM (IC50). Further, on SARS-CoV-2 3CLpro, the IC50 is 1.81 µM and the “inhibition activity” value was “active in vitro”.

As for `CN(C)[C@@H]1C(O)=C(C(N)=O)C(=O)[C@@]2(O)C(O)=C3C(=O)c4c(O)c(NC(=O)CN5CCCC5)cc(F)c4C[C@H]3C[C@@H]12` [ERAVACYCLINE diHcl, (4S,4aS,5aR,12aS)-4-(Dimethylamido)-7-fluoro-3,10,12,12a-tetrahydroxy-1,11-dioxo-9-[(1-pyrrolidinylacetyl)amino]-1,4,4a,5,5a,6,11,12a-octahydro-2-tetracenecarboxamide], the “cytotoxicity / cell viability (in words)” value with VeroE6 cells was “without affecting cell viability”. The concentration for half-maximal inhibition (IC50) is 16.4 µM at MERS-CoV 3CLpro, 1.65 µM on SARS-CoV-2 3CLpro and 30.6 µM in the series on SARS-CoV-2. Also, the “inhibition activity” value at SARS-CoV-2 3CLpro is “active in vitro”.

For the compound `COc1cccc(OCCCN)c1-c1cc(Nc2cnc(C#N)cn2)n[nH]1` [PREXASERTIB diHCl, 5-((5-(2-(3-Aminopropoxy)-6-methoxyphenyl)-1H-pyrazol-3-yl)amino)-2-pyrazinecarbonitrile], the IC50 on MERS-CoV 3CLpro was 12.4 µM. Moreover, at SARS-CoV-2 3CLpro, half-maximal inhibition (IC50) required 2 µM and the “inhibition activity” value was “active in vitro”.

Turning to `CC(C)C[C@H](NC(=O)[C@H](CCc1ccccc1)NC(=O)CN1CCOCC1)C(=O)N[C@@H](Cc1ccccc1)C(=O)N[C@@H](CC(C)C)C(=O)[C@@]1(C)CO1` [carfilzomib], the “inhibition of SARS-CoV-2 protease (in words)” value at SARS-CoV-2 protease was “failed to inhibit”.

As for `CC[C@H]1CN2CCc3cc(OC)c(OC)cc3[C@@H]2C[C@@H]1C[C@H]1NCCc2cc(OC)c(OC)cc21` [emetine], in the series with SARS-CoV-2 virus, the IC50 is 0.46 µM.

Take `COC(=O)C[C@](O)(CCCC(C)(C)O)C(=O)O[C@@H]1C(OC)=C[C@]23CCCN2CCc2cc4c(cc2[C@H]13)OCO4` [homorringtonine, 1-((1S,3aR,14bS)-2-Methoxy-1,5,6,8,9,14b-hexahydro-4H-cyclopenta(a)(1,3)dioxolo(4,5-h)pyrrolo(2,1-b)(3)benzazepin-1-yl) 4-methyl (2R)-2-hydroxy-2-(4-hydroxy-4-methylpentyl)butanedioate]: the IC50 in the series on SARS-CoV-2 virus is 2.55 µM.

With `CCC(CC)COC(=O)[C@H](C)N[P@](=O)(OC[C@H]1O[C@@](C#N)(c2ccc3c(N)ncnn23)[C@H](O)[C@@H]1O)Oc1ccccc1` [remdesivir, (2S)-2-{(2R,3S,4R,5R)-[5-(4-Aminopyrrolo[2,1-f][1,2,4]triazin-7-yl)-5-cyano-3,4-dihydroxy-tetrahydro-furan-2-ylmethoxy]phenoxy-(S)-phosphorylamino}propionic acid 2-ethyl-butyl ester], the IC50 with SARS-CoV-2 was approximately 12 µM.
